Test system: Yeast
Assay: preservative efficacy (Antimicrobial Effectiveness Testing USP 24th Edition) in cosmetic formulations
Format: cell-based, Candida albicans ATCC 10231
Conditions: 0.20 g of LAE
Protocol: This assay consists of the contamination of the protecting formulations with an inoculum mixture of 10^8 cfu/mL concentration, for each of the microorganisms, and the determination of the number of viable cells in the time. This inoculum mixture is composed of the following microorganisms:
The cosmetic composition to be analysed is divided into sterile containers with 50 g of product for each flask. Each container is inoculated with 0.5 mL of inoculum (10^8 cfu/mL). The target concentration is 10^6 cfu/mL, approximately. All the containers are kept at a temperature between 20-25° C. and are protected from light.
The level of the microbial contamination is checked at 0 hours, 7 days, 14 days and 28 days. The number of colonies is evaluated by dilution in buffer peptone with the appropriate neutraliser agent of the preservative. The culture media used for counting the microorganisms are: Soya triptone (35-37° C., 48 hours) for the determination of bacteria; Sabouraud agar with chloramphenicol for fungi and yeast (25° C., 3-5 days).
According to Antimicrobial Effectiveness Testing USP 24th Edition, 1999 (pp. 1809-1811), an antimicrobial preservative is considered to be effective in topically used products made with aqueous bases or vehicles, non-sterile nasal products and emulsions, including those applied to mucous membranes, if: • Not less than 2.0 logarithm reduction from the initial calculated bacteria's count is reached at 14 days and no increase from the 14 days' count at 28 days is detected; and • No increase from the initial calculated count of yeast and moulds is observed.

SMILES: CCCCCCCCCCCC(=O)N[C@@H](CCCN=C(N)N)C(=O)OCC.Cl [LAE, ethyl ester of the lauramide of the arginine monohydrochloride]
- viable count With LAE (Example 1, oil-in-water emulsion with non-ionic surfactant, 7 days): 9.5 · 10^2 cfu/mL
- viable count With LAE (Example 1, oil-in-water emulsion with non-ionic surfactant, 14 days): 4.0 · 10^2 cfu/mL
- viable count With LAE (Example 1, oil-in-water emulsion with non-ionic surfactant, Initial): 5.6 · 10^5 cfu/mL
- viable count With LAE (Example 2, oil-in-water emulsion with an ionic emulsifier, 7 days): 1.0 · 10^2 cfu/mL
- viable count With LAE (Example 2, oil-in-water emulsion with an ionic emulsifier, 14 days): 1.0 · 10^2 cfu/mL
- viable count With LAE (Example 2, oil-in-water emulsion with an ionic emulsifier, Initial): 3.6 · 10^4 cfu/mL
- viable count With LAE (Example 3, water in oil emulsion with non-ionic emulsifiers, 7 days): <9.9 · 10^1 cfu/mL
- viable count With LAE (Example 3, water in oil emulsion with non-ionic emulsifiers, 14 days): <9.9 · 10^1 cfu/mL
- viable count With LAE (Example 3, water in oil emulsion with non-ionic emulsifiers, Initial): 7.0 · 10^4 cfu/mL
- viable count With LAE (Example 4, aqueous solution with a surfactants' mixture (bath gels, disodium cocoamfoacetate), 7 days): <9.9 · 10^1 cfu/mL
- viable count With LAE (Example 4, aqueous solution with a surfactants' mixture (bath gels, disodium cocoamfoacetate), 14 days): <9.9 · 10^1 cfu/mL
- viable count With LAE (Example 4, aqueous solution with a surfactants' mixture (bath gels, disodium cocoamfoacetate), Initial): 4.6 · 10^4 cfu/mL
- viable count With LAE (Example 5, aqueous solution with a surfactants' mixture (bath gels, disodium lauryl sulfosuccinate), 7 days): <9.9 · 10^1 cfu/mL
- viable count With LAE (Example 5, aqueous solution with a surfactants' mixture (bath gels, disodium lauryl sulfosuccinate), 14 days): <9.9 · 10^1 cfu/mL
- viable count With LAE (Example 5, aqueous solution with a surfactants' mixture (bath gels, disodium lauryl sulfosuccinate), Initial): 3.6 · 10^4 cfu/mL
- viable count With LAE (Example 6, hydroalcoholic gel (after-shaving lotions), 7 days): 1.6 · 10^2 cfu/mL
- viable count With LAE (Example 6, hydroalcoholic gel (after-shaving lotions), 14 days): <9.9 · 10^1 cfu/mL
- viable count With LAE (Example 6, hydroalcoholic gel (after-shaving lotions), Initial): 4.2 · 10^4 cfu/mL
- viable count With LAE (Example 7, facial tonic, 7 days): 1.1 · 10^2 cfu/mL
- viable count With LAE (Example 7, facial tonic, 14 days): <9.9 · 10^1 cfu/mL
- viable count With LAE (Example 7, facial tonic, Initial): 1.2 · 10^4 cfu/mL
- viable count With LAE (Example 8, mask-up cleaner, 7 days): 1.8 · 10^2 cfu/mL
- viable count With LAE (Example 8, mask-up cleaner, 14 days): <9.9 · 10^1 cfu/mL
- viable count With LAE (Example 8, mask-up cleaner, Initial): 7.2 · 10^4 cfu/mL
- viable count With LAE (Example 9, fluid oil-in-water emulsion with non-ionic surfactants (body oil), 7 days): 2.3 · 10^2 cfu/mL
- viable count With LAE (Example 9, fluid oil-in-water emulsion with non-ionic surfactants (body oil), 14 days): <9.9 · 10^1 cfu/mL
- viable count With LAE (Example 9, fluid oil-in-water emulsion with non-ionic surfactants (body oil), Initial): 7.2 · 10^4 cfu/mL
- viable count With LAE (Example 10, toothpaste formulation, 7 days): 1.2 · 10^2 cfu/mL
- viable count With LAE (Example 10, toothpaste formulation, 14 days): <9.9 · 10^1 cfu/mL
- viable count With LAE (Example 10, toothpaste formulation, Initial): 4.2 · 10^4 cfu/mL
- viable count With LAE (Example 11, aqueous solution with surfactants (shampoos), 7 days): 1.2 · 10^2 cfu/mL
- viable count With LAE (Example 11, aqueous solution with surfactants (shampoos), 14 days): <9.9 · 10^1 cfu/mL
- viable count With LAE (Example 11, aqueous solution with surfactants (shampoos), Initial): 4.2 · 10^4 cfu/mL
- viable count With LAE (Example 12, oil-in-water emulsion with non-ionic surfactants (face cream), 7 days): 9.2 · 10^2 cfu/mL
- viable count With LAE (Example 12, oil-in-water emulsion with non-ionic surfactants (face cream), 14 days): <9.9 · 10^1 cfu/mL
- viable count With LAE (Example 12, oil-in-water emulsion with non-ionic surfactants (face cream), Initial): 3.2 · 10^4 cfu/mL
- viable count With LAE (Example 13, oil-in-water emulsion with non-ionic surfactants (sun protector, polysorbate 60), 7 days): 4.2 · 10^2 cfu/mL
- viable count With LAE (Example 13, oil-in-water emulsion with non-ionic surfactants (sun protector, polysorbate 60), 14 days): <9.9 · 10^1 cfu/mL
- viable count With LAE (Example 13, oil-in-water emulsion with non-ionic surfactants (sun protector, polysorbate 60), Initial): 3.8 · 10^4 cfu/mL
- viable count With LAE (Example 14, oil-in-water emulsion with non-ionic surfactants (sun protector, cetyl dimethicone copolyol), 7 days): 4.5 · 10^2 cfu/mL
- viable count With LAE (Example 14, oil-in-water emulsion with non-ionic surfactants (sun protector, cetyl dimethicone copolyol), 14 days): <9.9 · 10^1 cfu/mL
- viable count With LAE (Example 14, oil-in-water emulsion with non-ionic surfactants (sun protector, cetyl dimethicone copolyol), Initial): 7.9 · 10^4 cfu/mL
- viable count With LAE (Example 15, emulsion for hands care, 7 days): 7.2 · 10^2 cfu/mL
- viable count With LAE (Example 15, emulsion for hands care, 14 days): <9.9 · 10^1 cfu/mL
- viable count With LAE (Example 15, emulsion for hands care, Initial): 8.6 · 10^4 cfu/mL
